Here are results for 10 compounds from paper PMC9926234, “Iterative computational design and crystallographic screening identifies potent inhibitors targeting the Nsp3 macrodomain of SARS-CoV-2” (Proceedings of the National Academy of Sciences of the …, 2023).

Where “and” joins values, the source holds several entries; their conditions need not be identical. Equal values may be shown once. Read-outs that look alike come from different tables or passages of the source.

The target of assay [1] is T1, SARS-CoV-2 NSP3 Mac1 (Severe acute respiratory syndrome coronavirus 2, UniProt P0DTD1). Kind of assay: biochemical. It counts as binding. To be noted: for IC50: read-out: IC50; for Ki: Ki estimation from HTRF-derived IC50, Cheng-Prusoff, peptide 400nM, Kd 2.68µM, read-out: Ki***.
Assay [2] deals with T1, SARS-CoV-2 NSP3 Mac1. It counts as binding. The following applies: for Refined occupancy: ligand occupancy after refinement (phenix.refine); for HIT*: true hit = binding in crystallographic soaking or the HTRF-based binding assay. On the technique in general: In TR-FRET formats the signal depends on donor and acceptor labels being close together.
Where [3] appears, read: HTRF ADPr-peptide displacement from SARS-CoV-2 Mac1.
The mark [4] stands for this setting: PanDDA event map, 1 minus background density correction, crystal soaking of Mac1.
The mark [5] stands for this setting: PanDDA event map 1-BDC, crystal soak, Compound_concentration 100 mM, PanDDA run dmso_34 or nohits_35 per dataset.
Where [6] appears, read: crystal soak, Compound_concentration 100 mM, Echo dispense 40 nl, PanDDA run dmso_34 or nohits_35 per dataset.
The mark [7] stands for this setting: ligand modeled in this dataset, crystal soak, Compound_concentration 100 mM.

Take `CS(=O)(=O)NC(=O)C1CN(c2ncnc3[nH]c4cc(F)ccc4c23)CCO1` (centres unmarked) [LL114_0019]: the IC50 at SARS-CoV-2 NSP3 Mac1 [1] (setting [3]) came to 12 µM; on SARS-CoV-2 NSP3 Mac1 [1] (HTRF) it was 12.3 µM. For the same compound, the Ki at SARS-CoV-2 NSP3 Mac1 [1] is 10.7 µM. The compound further yielded a 1-BDC on SARS-CoV-2 NSP3 Mac1 [2] (PanDDA 1-BDC of the event, compound stock 100 mM, Echo dispense volume 40 nl) of 0.1. For the same compound, the “1-BDC (PanDDA)” value on SARS-CoV-2 NSP3 Mac1 [2] (setting [4]) worked out at 0.1. The “PanDDA hit?” value on SARS-CoV-2 NSP3 Mac1 [2] (crystal soak, compound stock 100 mM, Echo dispense volume 40 nl) was “TRUE”. In addition, the “Modeled?” value at SARS-CoV-2 NSP3 Mac1 [2] (ligand modeled in structure, compound stock 100 mM, Echo dispense volume 40 nl) is “TRUE”. On SARS-CoV-2 NSP3 Mac1 [2] (crystal soaking of Mac1), the Refined occupancy stood at 20. The “HIT*” value on SARS-CoV-2 NSP3 Mac1 [2] was “Y”.
As for `O=C(Nc1ccc(C(=O)NC2c3cccc(O)c3CC2C(=O)O)c2scnc12)NC1CC1` (centres unmarked) [Z8539_0065], the values for the IC50 on SARS-CoV-2 NSP3 Mac1 [1] (setting [3]) and at SARS-CoV-2 NSP3 Mac1 [1] (HTRF) were 3.3 µM and 4.8 µM, respectively. Also, the Ki on SARS-CoV-2 NSP3 Mac1 [1] is 4.2 µM. Besides, the 1-BDC on SARS-CoV-2 NSP3 Mac1 [2] (setting [5]) was found to be 0.09. At SARS-CoV-2 NSP3 Mac1 [2] (setting [4]), the “1-BDC (PanDDA)” value is recorded as 0.09. Besides, the “PanDDA hit?” value on SARS-CoV-2 NSP3 Mac1 [2] (setting [6]) is recorded as “TRUE”. Also, the “Modeled?” value on SARS-CoV-2 NSP3 Mac1 [2] (setting [7]) was “TRUE”. For the same compound, on SARS-CoV-2 NSP3 Mac1 [2] (crystal soaking of Mac1), the Refined occupancy is recorded as 18. Besides, the “HIT*” value on SARS-CoV-2 NSP3 Mac1 [2] is “Y”.
Regarding `O=C(O)CC1CN(c2ncnc3[nH]c4ccccc4c23)CC(C(F)(F)F)O1` (centres unmarked) [Z1229], the IC50 at SARS-CoV-2 NSP3 Mac1 [1] (HTRF) was found to be 119 µM. Moreover, the Ki on SARS-CoV-2 NSP3 Mac1 [1] was 104 µM. Also, at SARS-CoV-2 NSP3 Mac1 [2], the “HIT*” value is given as “Y”.
Take `CN(C(=O)c1ccc(NC(=O)NC2CC2)cc1)C1c2cccc(O)c2CC1C(=O)O` (centres unmarked) [Z8539_0056]: the “binding to Mac1 in the HTRF assay, result in words” value on SARS-CoV-2 NSP3 Mac1 [1] was “inactive”.
`O=C(O)CC1CN(c2ncnc3[nH]c4ccccc4c23)CCO1` (centres unmarked) [Z9596]: the IC50 on SARS-CoV-2 NSP3 Mac1 [1] (HTRF) was 37.1 µM. Further, at SARS-CoV-2 NSP3 Mac1 [1], the Ki was 32.3 µM. In addition, on SARS-CoV-2 NSP3 Mac1 [2], the “HIT*” value is on record as “Y”.
The like results for `O=C(O)CC1CN(c2ncnc3[nH]c4cc(Br)ccc4c23)CCO1` (centres unmarked) [LL114_0014] were, in that order, 25.9 µM, 22.5 µM and “Y”.
On the same counts, the results for `O=C(O)C(F)(F)F.O=C(O)C1CN(c2ncnc3[nH]c4ccccc4c23)CC12CCC2` (centres unmarked) [Z4706] are 15.4 µM, 13.4 µM and “Y”.
With `Nc1cc(NC(=O)NC2CC2)ccc1C(=O)NC1c2cccc(O)c2CC1C(=O)O` (centres unmarked) [Z8539_0059], the figures for the IC50 on SARS-CoV-2 NSP3 Mac1 [1] (setting [3]) and on SARS-CoV-2 NSP3 Mac1 [1] (HTRF) were 0.9 µM and 0.8 µM, respectively. Further, on SARS-CoV-2 NSP3 Mac1 [1], the Ki is 0.7 µM. On SARS-CoV-2 NSP3 Mac1 [2] (setting [5]), this compound registered a 1-BDC of 0.25. In addition, on SARS-CoV-2 NSP3 Mac1 [2] (setting [4]), the “1-BDC (PanDDA)” value amounted to 0.25. Moreover, on SARS-CoV-2 NSP3 Mac1 [2] (setting [6]), the “PanDDA hit?” value is given as “TRUE”. Besides, the “Modeled?” value on SARS-CoV-2 NSP3 Mac1 [2] (setting [7]) was “TRUE”. The Refined occupancy at SARS-CoV-2 NSP3 Mac1 [2] (crystal soaking of Mac1) is listed as 50. Also, the “HIT*” value at SARS-CoV-2 NSP3 Mac1 [2] is reported as “Y”.
With `CS(=O)(=O)NC(=O)C1(F)CN(c2ncnc3[nH]c4cc(F)ccc4c23)CC12CCC2` (centres unmarked) [LL123_0036], the IC50 on SARS-CoV-2 NSP3 Mac1 [1] (setting [3]) was 17.1 µM and 17 µM. In addition, the Ki on SARS-CoV-2 NSP3 Mac1 [1] is 14.8 µM. Moreover, the 1-BDC on SARS-CoV-2 NSP3 Mac1 [2] (PanDDA 1-BDC of the event, compound stock 100 mM, Echo dispense volume 80 nl) is recorded as 0.18; on SARS-CoV-2 NSP3 Mac1 [2] (setting [5]), 0.2. In addition, the “1-BDC (PanDDA)” value on SARS-CoV-2 NSP3 Mac1 [2] (setting [4]) is recorded as 0.18. Further, the “PanDDA hit?” value on SARS-CoV-2 NSP3 Mac1 [2] (setting [6]) is on record as “TRUE”; at SARS-CoV-2 NSP3 Mac1 [2] (crystal soak, compound stock 100 mM, Echo dispense volume 80 nl), “TRUE”. In addition, the “Modeled?” value at SARS-CoV-2 NSP3 Mac1 [2] (ligand modeled in structure, compound stock 100 mM, Echo dispense volume 80 nl) was “TRUE”. The Refined occupancy at SARS-CoV-2 NSP3 Mac1 [2] (crystal soaking of Mac1) came to 36. The “HIT*” value at SARS-CoV-2 NSP3 Mac1 [2] is given as “Y”.
Regarding `O=C(Nc1ccc(C(=O)NC2c3cccc(O)c3CC2C(=O)O)c(Cl)c1)NC1CC1` (centres unmarked) [Z8539_0055], the IC50 at SARS-CoV-2 NSP3 Mac1 [1] (setting [3]) was 9.6 µM; at SARS-CoV-2 NSP3 Mac1 [1] (HTRF), 10 µM. Further, at SARS-CoV-2 NSP3 Mac1 [1], the Ki was 8.7 µM. Moreover, the 1-BDC at SARS-CoV-2 NSP3 Mac1 [2] (setting [5]) worked out at 0.22; at SARS-CoV-2 NSP3 Mac1 [2] (setting [4]), 0.13. Moreover, the “PanDDA hit?” value on SARS-CoV-2 NSP3 Mac1 [2] (setting [6]) is reported as “TRUE”. Further, on SARS-CoV-2 NSP3 Mac1 [2] (ligand modeled from this dataset, compound concentration 100 mM), the “Modeled?” value is “TRUE”. The Refined occupancy on SARS-CoV-2 NSP3 Mac1 [2] (crystal soaking of Mac1) is given as 26. Moreover, the “HIT*” value at SARS-CoV-2 NSP3 Mac1 [2] is recorded as “Y”.

A word on the IC50: it is the concentration needed to halve the response being measured. As a reminder, the Ki is the dissociation constant of the complex between target and ligand, obtained from inhibition or displacement.
